Measurements: US6921773B2, “Use of α-1AR subtype-selective drugs in patients with acute myocardial infarction” (Duke University, priority 1999, dated 2005)
Entries after “also recorded” stand apart in the source; their conditions may differ. Each block holds one compound with its values, some of them ahead of it.

Assays:
human mammary artery = assay: Phenylephrine-induced mammary artery contraction (isometric tension, organ chambers), with or without a1AR antagonists; settings: for Shift of phenylephrine dose response by antagonist: prazosin 10^-9 and 10^-8 mol/L, 5-MU/spiperone/BMY7378 10^-8 and 10^-7 mol/L; for Kb: read-out: Potency in inhibiting mammary artery contraction (pKB) (converted)
From the text: Mammary arteries were immersed in cold oxygenated Krebs-Ringer bicarbonate solution (118.3 mmol/L NaCl, 4.7 mmol/L KCl, 1.2 mmol/L MgSO4, 1.2 mmol/L KHPO4, […], 25 mmol/L NaHCO3, […], […]), cleaned of loose connective tissue, cut into 4-5 mm long rings, and suspended for isometric tension recording in organ chambers. One stirrup was anchored to the chamber and the other connected to a strain gauge (FT-102) for measurement of isometric force (MacLab, CB Sciences; Milford, Mass.). All concentration effect curves were performed at optimum resting tone (˜3 g in pilot studies). Contractile response to 60 mmol/L KCI was performed; this determined vessel viability and facilitated normalization of phenylephrine response across vessel rings. Phenylephrine dose-response curves were generated (10^−4-10^−9mol/L) in ½ log order concentrations in the absence/presence of competitive a1AR antagonists. […] Antagonist potency was expressed as the dissociation constant (KB) determined from pKB=log[B]log(DR-1), where [B] is antagonist concentration and DR the dose ratio produced by antagonist. Dose response curves were analyzed using DOSE RESPONSE software (MacLab, CB Sciences).

a1AR subtypes = assay: Competition analysis against [125I]HEAT in human vessel membranes; assay type: binding; settings: mammary, renal, splenic arteries, and vena cava; n=3 experiments per vessel
Description: (§1) Vessels were weighed, lumen diameter measured, pulverized under liquid nitrogen, and suspended in cold lysis buffer (5 mmol/L Tris HCl and 5 mmol/L EDTA, pH 7.4) with protease inhibitors.^14 After lysate preparation, membranes were resuspended in cold binding buffer (150 mmol/L NaCl, 50 mmol/L Tris·HCl, 5 mmol/L EDTA, with protease inhibitors, pH 7.4) as previously described;^14 protein concentration was determined using the bicinchoninic acid method (Pierce, Rockford, Ill.). Full saturation binding isotherms were performed in selected human vessels (aorta, mammary artery, saphenous vein) in 250 μl binding buffer (20-60 μg vessel membrane protein) using the α1-adrenergic antagonist [^125I]HEAT(2-[b-(hydroxy-3[^125I]iodophenyl)ethyl-aminomethyl]-tetralone; DuPont-NEN; Boston, Mass.) as previously described.^14 To measure total a1AR density in all vessels, a saturating concentration (300 pmol/L) of the [^125I]HEAT was used.

a1AR = assay: [125I]HEAT saturation binding isotherms in human vessel membranes; settings: n=2-4
Description: as §1

[1] = elderly patients; compared with alfuzosin (non-selective); cited from earlier work
[2] = Homo sapiens, phenylephrine dose response curves, mean±SEM

Number of binding sites in competition analysis (a1AR subtypes): binds to two sites
SMILES: COc1ccccc1N1CCN(CCCNc2c(C)c(=O)n(C)c(=O)n2C)CC1 [5-MU]
Potency in inhibiting mammary artery contraction (pKB) (human mammary artery; phenylephrine dose response curves, mean±SEM): 8.4±0.63
Shift of phenylephrine dose response by antagonist (human mammary artery): concentration dependent shift in potency without reducing maximum response

SMILES: COc1ccccc1N1CCN(CCN2C(=O)CC3(CCCC3)CC2=O)CC1 [BMY7378]
Shift of phenylephrine dose response by antagonist (human mammary artery): does not produce a significant shift; also recorded: does not produce a shift in dose response

EC50 (human mammary artery; Homo sapiens, 10 mammary arteries, mean±SEM, read-out: pD2 of isometric contraction (converted)): 1000 nM
SMILES: CNC[C@H](O)c1cccc(O)c1 [Phenylephrine]

Kd (a1AR; aorta): 0.13 ± 0.0002 nM
Kd (a1AR; mammary artery): 0.13 ± 0.0031 nM
Kd (a1AR; saphenous vein): 0.13 ± 0.00065 nM
SMILES: O=C1c2ccccc2CCC1CNCCc1ccc(O)c(I)c1 (stereo not shown) [^125I-HEAT, 2-[b-(hydroxy-3[^125I]iodophenyl)ethyl-aminomethyl]-tetralone]

SMILES: COc1cc2nc(N3CCN(C(=O)c4ccco4)CC3)nc(N)c2cc1OC [prazosin]
Kb (human mammary artery; [2]): 0.631 nM
Shift of phenylephrine dose response by antagonist (human mammary artery): concentration dependent shift in potency without reducing maximum response

SMILES: O=C(CCCN1CCC2(CC1)C(=O)NCN2c1ccccc1)c1ccc(F)cc1 [spiperone]
Kb (human mammary artery; [2]): 2.51 nM
Shift of phenylephrine dose response by antagonist (human mammary artery): concentration dependent shift in potency without reducing maximum response

SMILES: CCOc1ccccc1OCCN[C@H](C)Cc1ccc(OC)c(S(N)(=O)=O)c1 [tamsulosin]
Blood pressure perturbation [1]: less blood pressure perturbation
